Each structure is given as a SMILES string.

The subject of one assay is P388 leukemia. The experiment in a line: Antineoplastic effect for P388 leukemia mice (survival, T/C). The conditions noted are these: Total dose 20 mg/kg; dosed to the abdominal cavity 1, 5 and 9 days after transplantation of 10⁶ P388 cells; average survival days of dosed vs non-dosed group. The class given is in vivo, CDF₁ mice. As to the method: P388 cells of 10⁶ in number were transplanted into abdominal cavity of CDF₁ mice of approximately 9 week-age (female, Non-dosed group: 5 - 8 mice, group dosed with the test compound: 1 - 5 mice). One, five, and nine days after the transplantation, the test compound which was dissolved or suspended in 1% Tween 80 (Kanto Chemical Inc.)/physiological saline was dosed to the abdominal cavity. The antineoplastic effect of the test compounds are shown by the T/C value (%) derived from the formula below. (T)/(C)(%) =(Average survival days of dosed group)/(Average survival days of non-dosed group)x 100 [formula]
Turning to `O=C1OCc2c(cc3n(c2=O)Cc2c-3nc3ccc(Cl)c4c3c2CCC4)C1(O)CCF` (stereo not shown) [Example 24, 4-chloro-9-(2-fluoroethyl)-2,3-dihydro-9-hydroxy-1H,12H-benzo[d,e]pyrano[3',4':6,7]indolizino[1,2-b]quinoline-10,13(9H,15H)-dione], the “T/C (%)” value is recorded as 385%. On the same count and under the same terms, as for `CCc1c2c(nc3ccc([N+](=O)[O-])cc13)-c1cc3c(c(=O)n1C2)COC(=O)C3(O)CCF` (stereo not shown) [Example 16, 11-ethyl-4-(2-fluoroethyl)-4-hydroxy-9-nitro-1H-pyrano[3',4':6,7]indolizino[1,2-b]quinoline-3,14(4H,12H)-dione], the figure is 345%; as for `CCc1c2c(nc3ccc(C)cc13)-c1cc3c(c(=O)n1C2)COC(=O)C3(O)CCF` (stereo not shown) [Example 11, 11-ethyl-4-(2-fluoroethyl)-4-hydroxy-9-methyl-1H-pyrano[3',4':6,7]indolizino[1,2-b]quinoline-3,14(4H,12H)-dione], 483%; as for `CC[C@@]1(O)C(=O)OCc2c1cc1n(c2=O)Cc2cc3ccccc3nc2-1` [Camptothecin], 218%.

The same assay, now with this note: Total dose 30 mg/kg; dosed to the abdominal cavity 1, 5 and 9 days after transplantation of 10⁶ P388 cells; average survival days of dosed vs non-dosed group.
`Cc1c2c(nc3ccccc13)-c1cc3c(c(=O)n1C2)COC(=O)C3(O)CCF` (stereo not shown) [Example 41, 4-[2-fluoroethyl)-4-hydroxy-11-methyl-1H-pyrano[3',4':6,7]indolizino[1,2-b]quinoline-3,14(4H,12H)-dione]: the “T/C (%)” value is recorded as 386%. As for `CCOc1ccc2nc3c(c(CC)c2c1)Cn1c-3cc2c(c1=O)COC(=O)C2(O)CCF` (stereo not shown) [Example 26, 9-ethoxy-11-ethyl-4-[2-fluoroethyl)-4-hydroxy-1H-pyrano[3',4':6,7]indolizino[1,2-b]quinoline-3,14(4H,12H)-dione], the “T/C (%)” value stood at 583%.

Consider `CCc1ccc2nc3c(c(CC)c2c1)Cn1c-3cc2c(c1=O)COC(=O)C2(O)CCF` (stereo not shown) [Example 25, 9,11-diethyl-4-(2-fluoroethyl)-4-hydroxy-1H-pyrano[3',4':6,7]indolizino[1,2-b]quinoline-3,14(4H,12H)-dione], for which the “T/C (%)” value is given as 345%.

For the origin of these results see patent EP0471358B1, “Fluoroethylcamptothecin derivatives” (KYORIN PHARMACEUTICAL CO., LTD., priority 1990, dated 1992).
